In US9409866B2, “Pyridine-2-amides useful as CB2 agonists” (Hoffmann-La Roche Inc., priority 2012, dated 2016):
pEC50: −log10 of the molar value. Where two headings read alike, the source gives them in different places.

Legend:
human CB2 receptors = human CB2 receptors (Homo sapiens (Human), UniProt P34972); experiment: functional cAMP assay, CHO cells expressing human CB2; format: cell-based; details: Human CB2 EC50 (uM)
Experimental: (§1) CHO cells expressing human CB1 or CB2 receptors are seeded 17-24 hours prior to the experiment 50.000 cells per well in a black 96 well plate with flat clear bottom (Corning Costar #3904) in DMEM (Invitrogen No. 31331), 1×HT supplement, with 10% fetal calf serum and incubated at 5% CO2 and 37° C. in a humidified incubator. The growth medium was exchanged with Krebs Ringer Bicarbonate buffer with 1 mM IBMX and incubated at 30° C. for 30 min. Compounds were added to a final assay volume of 100 μl and incubated for 30 min at 30° C. Using the cAMP-Nano-TRF detection kit the assay (Roche Diagnostics) was stopped by the addition of 50 μl lysis reagent (Tris, NaCl, 1.5% Triton X100, 2.5% NP40, 10% NaN3) and 50 μl detection solutions (20 μM mAb Alexa700-cAMP 1:1, and 48 μM Ruthenium-2-AHA-cAMP) and shaken for 2 h at room temperature. The time-resolved energy transfer is measured by a TRF reader (Evotec Technologies GmbH), equipped with a ND:YAG laser as excitation source. The plate is measured twice with the excitation at 355 nm and at the emission with a delay of 100 ns and a gate of 100 ns, total exposure time 10 s at 730 (bandwidth 30 nm) or 645 nm (bandwidth 75 nm), respectively. The FRET signal is calculated as follows: FRET=T730-Alexa730-P(T645-B645) with P=Ru730-B730/Ru645-B645, where T730 is the test well measured at 730 nM, T645 is the test well measured at 645 nm, B730 and B645 are the buffer controls at 730 nm and 645 nm, respectively. cAMP content is determined from the function of a standard curve spanning from 10 μM to 0.13 nM cAMP.
(§2) EC50 values were determined using Activity Base analysis (ID Business Solution, Limited). The EC50 values for a wide range of cannabinoid agonists generated from this assay were in agreement with the values published in the scientific literature.

human CB1 receptors = human CB1 receptors (Homo sapiens (Human), UniProt P21554); experiment: functional cAMP assay, CHO cells expressing human CB1; format: cell-based; details: functional cAMP assay, CHO cells expressing human CB1; for EC50: Human CB1 EC50 (uM); for pEC50: read-out: Human CB1 EC50
Sequence of human CB1 receptors (P21554 whole entry): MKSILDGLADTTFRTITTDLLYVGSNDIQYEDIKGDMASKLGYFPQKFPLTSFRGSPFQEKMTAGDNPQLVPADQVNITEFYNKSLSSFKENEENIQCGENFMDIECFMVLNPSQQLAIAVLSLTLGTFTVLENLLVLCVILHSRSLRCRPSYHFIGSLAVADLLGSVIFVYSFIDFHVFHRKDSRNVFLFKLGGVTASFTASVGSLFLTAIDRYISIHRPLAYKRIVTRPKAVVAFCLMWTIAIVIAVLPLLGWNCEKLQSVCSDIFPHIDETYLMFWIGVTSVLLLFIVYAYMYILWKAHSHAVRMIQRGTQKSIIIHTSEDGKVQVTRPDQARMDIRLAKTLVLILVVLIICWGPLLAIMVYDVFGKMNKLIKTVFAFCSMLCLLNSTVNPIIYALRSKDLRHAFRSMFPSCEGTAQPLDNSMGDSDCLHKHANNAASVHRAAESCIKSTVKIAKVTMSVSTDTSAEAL
Experimental: as §1, §2

Sequence of human CB2 receptors (P34972 whole entry): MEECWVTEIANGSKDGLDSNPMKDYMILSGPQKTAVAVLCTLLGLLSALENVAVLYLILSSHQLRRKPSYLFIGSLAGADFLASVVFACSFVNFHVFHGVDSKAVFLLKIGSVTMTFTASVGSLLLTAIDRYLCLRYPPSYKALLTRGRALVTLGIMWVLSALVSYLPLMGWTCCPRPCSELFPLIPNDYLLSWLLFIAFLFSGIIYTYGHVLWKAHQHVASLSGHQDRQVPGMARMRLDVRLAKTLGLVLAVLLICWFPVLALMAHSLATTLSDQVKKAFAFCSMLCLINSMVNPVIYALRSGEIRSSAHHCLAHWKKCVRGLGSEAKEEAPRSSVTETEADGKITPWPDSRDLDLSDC

Compound | EC50 (human CB2 receptors) | EC50 (human CB1 receptors) | pEC50 (human CB1 receptors)
CNC(=O)C(NC(=O)c1cc(OCC(F)(F)F)c(C2CC2)cn1)C(C)(C)C (single isomer, unassigned) [Example 224, 5-cyclopropyl-N-[3,3-dimethyl-1-(methylamino)-1-oxobutan-2-yl]-4-(2,2,2-trifluoroethoxy)pyridine-2-carboxamide] | 0.0573 µM | > 10 µM | 
CNC(=O)C(NC(=O)c1cc(OCC(F)(F)F)c(C2CC2)cn1)C(C)(C)C (single isomer, unassigned) [Example 225, 5-cyclopropyl-N-[3,3-dimethyl-1-(methylamino)-1-oxobutan-2-yl]-4-(2,2,2-trifluoroethoxy)pyridine-2-carboxamide] | 0.0004 µM |  | < 5.00
CC(C)(C)C(NC(=O)c1cc(OCC(F)(F)F)c(C2CC2)cn1)c1noc(N)n1 (single isomer, unassigned) [Example 226, N-[1-(5-amino-1,2,4-oxadiazol-3-yl)-2,2-dimethylpropyl]-5-cyclopropyl-4-(2,2,2-trifluoroethoxy)pyridine-2-carboxamide] | 0.0065 µM | > 10 µM | 
CC(C)(C)C(NC(=O)c1cc(OCC(F)(F)F)c(C2CC2)cn1)c1noc(N)n1 (single isomer, unassigned) [Example 227, N-[1-(5-amino-1,2,4-oxadiazol-3-yl)-2,2-dimethylpropyl]-5-cyclopropyl-4-(2,2,2-trifluoroethoxy)pyridine-2-carboxamide] | 0.015 µM |  | < 5.00
Cn1nnnc1C(C)(CC1CC1)NC(=O)c1cc(OCC(F)(F)F)c(C2CC2)cn1 (single isomer, unassigned) [Example 228, 5-cyclopropyl-N-[1-cyclopropyl-2-(1-methyltetrazol-5-yl)propan-2-yl]-4-(2,2,2-trifluoroethoxy)pyridine-2-carboxamide] | 0.0346 µM | > 10 µM | 
CNC(=O)CC(C)(NC(=O)c1cc(OCC(F)(F)F)c(C2CC2)cn1)C1CC1 (single isomer, unassigned) [Example 241, 5-cyclopropyl-N-[2-cyclopropyl-4-(methylamino)-4-oxobutan-2-yl]-4-(2,2,2-trifluoroethoxy)pyridine-2-carboxamide] | 0.0119 µM | > 10 µM | 
CNC(=O)CC(C)(NC(=O)c1cc(OCC(F)(F)F)c(C2CC2)cn1)C1CC1 (single isomer, unassigned) [Example 242, 5-cyclopropyl-N-[2-cyclopropyl-4-(methylamino)-4-oxobutan-2-yl]-4-(2,2,2-trifluoroethoxy)pyridine-2-carboxamide] | 0.237 µM |  | < 5.00
CC(CC(N)=O)(NC(=O)c1cc(OCC(F)(F)F)c(C2CC2)cn1)C1CC1 (single isomer, unassigned) [Example 243, N-[4-amino-2-cyclopropyl-4-oxobutan-2-yl]-5-cyclopropyl-4-(2,2,2-trifluoroethoxy)pyridine-2-carboxamide] | 0.0005 µM | > 10 µM | 
CC(CC(N)=O)(NC(=O)c1cc(OCC(F)(F)F)c(C2CC2)cn1)C1CC1 (single isomer, unassigned) [Example 244, N-[4-amino-2-cyclopropyl-4-oxobutan-2-yl]-5-cyclopropyl-4-(2,2,2-trifluoroethoxy)pyridine-2-carboxamide] | 0.0284 µM |  | < 5.00
CC(C)(C)C(NC(=O)c1cc(OCC2CC2)c(N2CC(F)(F)C2)cn1)C(N)=O (single isomer, unassigned) [Example 260, N-[1-amino-3,3-dimethyl-1-oxobutan-2-yl]-4-(cyclopropylmethoxy)-5-(3,3-difluoroazetidin-1-yl)pyridine-2-carboxamide] | 0.0209 µM | > 10 µM | 
CC(C)(C)C(NC(=O)c1cc(OCC2CC2)c(N2CC(F)(F)C2)cn1)C(N)=O (single isomer, unassigned) [Example 261, N-[1-amino-3,3-dimethyl-1-oxobutan-2-yl]-4-(cyclopropylmethoxy)-5-(3,3-difluoroazetidin-1-yl)pyridine-2-carboxamide] | 0.0211 µM |  | < 5.00
CC(C)(C)C(NC(=O)c1cc(OCC(F)(F)F)c(N2CC(F)(F)C2)cn1)C(N)=O (single isomer, unassigned) [Example 262, N-[1-amino-3,3-dimethyl-1-oxobutan-2-yl]-5-(3,3-difluoroazetidin-1-yl)-4-(2,2,2-trifluoroethoxy)pyridine-2-carboxamide] | 0.261 µM | > 10 µM | 
CC(C)(C)C(NC(=O)c1cc(OCC(F)(F)F)c(N2CC(F)(F)C2)cn1)C(N)=O (single isomer, unassigned) [Example 263, N-[1-amino-3,3-dimethyl-1-oxobutan-2-yl]-5-(3,3-difluoroazetidin-1-yl)-4-(2,2,2-trifluoroethoxy)pyridine-2-carboxamide] | 0.0338 µM |  | < 5.00
CC1(C(NC(=O)c2cc(OCC(F)(F)F)c(C3CC3)cn2)C(N)=O)COC1 (single isomer, unassigned) [Example 268, N-[2-amino-1-(3-methyloxetan-3-yl)-2-oxoethyl]-5-cyclopropyl-4-(2,2,2-trifluoroethoxy)pyridine-2-carboxamide] | 0.225 µM | > 10 µM | 
CC1(C(NC(=O)c2cc(OCC(F)(F)F)c(C3CC3)cn2)C(N)=O)COC1 (single isomer, unassigned) [Example 269, N-[2-amino-1-(3-methyloxetan-3-yl)-2-oxoethyl]-5-cyclopropyl-4-(2,2,2-trifluoroethoxy)pyridine-2-carboxamide] | 0.771 µM |  | < 5.00
CC(CC(N)=O)(NC(=O)c1cc(OCCF)c(C2CC2)cn1)C1CC1 (single isomer, unassigned) [Example 270, N-[4-amino-2-cyclopropyl-4-oxobutan-2-yl]-5-cyclopropyl-4-(2-fluoroethoxy)pyridine-2-carboxamide] | 0.0689 µM | > 10 µM | 
CC(CC(N)=O)(NC(=O)c1cc(OCCF)c(C2CC2)cn1)C1CC1 (single isomer, unassigned) [Example 271, N-[4-amino-2-cyclopropyl-4-oxobutan-2-yl]-5-cyclopropyl-4-(2-fluoroethoxy)pyridine-2-carboxamide] | 0.0015 µM |  | < 5.00
CC(CC(N)=O)(NC(=O)c1cc(OCC(F)F)c(C2CC2)cn1)C1CC1 (single isomer, unassigned) [Example 272, N-[4-amino-2-cyclopropyl-4-oxobutan-2-yl]-5-cyclopropyl-4-(2,2-difluoroethoxy)pyridine-2-carboxamide] | 0.0495 µM | > 10 µM | 
CC(CC(N)=O)(NC(=O)c1cc(OCC(F)F)c(C2CC2)cn1)C1CC1 (single isomer, unassigned) [Example 273, N-[4-amino-2-cyclopropyl-4-oxobutan-2-yl]-5-cyclopropyl-4-(2,2-difluoroethoxy)pyridine-2-carboxamide] | 0.0017 µM |  | < 5.00
CC(CC(N)=O)(NC(=O)c1cc(OCC(F)(F)F)c(N2CC(F)(F)C2)cn1)C1CC1 (single isomer, unassigned) [Example 275, N-[4-amino-2-cyclopropyl-4-oxobutan-2-yl]-5-(3,3-difluoroazetidin-1-yl)-4-(2,2,2-trifluoroethoxy)pyridine-2-carboxamide] | 0.0227 µM | > 10 µM | 
CC(CC(N)=O)(NC(=O)c1cc(OCC(F)(F)F)c(N2CC(F)(F)C2)cn1)C1CC1 (single isomer, unassigned) [Example 276, N-[4-amino-2-cyclopropyl-4-oxobutan-2-yl]-5-(3,3-difluoroazetidin-1-yl)-4-(2,2,2-trifluoroethoxy)pyridine-2-carboxamide] | 0.137 µM |  | < 5.00
C[C@H](Oc1cc(C(=O)NC(C)(CC(N)=O)C2CC2)ncc1C1(F)COC1)C(F)(F)F (single isomer, unassigned) [Example 277] | 0.0431 µM | > 10 µM | 
C[C@H](Oc1cc(C(=O)NC(C)(CC(N)=O)C2CC2)ncc1C1(F)COC1)C(F)(F)F (single isomer, unassigned) [Example 278] | 0.0929 µM |  | < 5.00
Cc1nc(C(C)(CS(C)(=O)=O)NC(=O)c2cc(OCCF)c(C3CC3)cn2)no1 (single isomer, unassigned) [Example 279, 5-cyclopropyl-4-(2-fluoroethoxy)-N-[2-(5-methyl-1,2,4-oxadiazol-3-yl)-1-methylsulfonylpropan-2-yl]pyridine-2-carboxamide] | 0.173 µM | > 10 µM | 
